Read-outs that look alike come from different tables or passages of the source.
Columns and labels:
[1] = tested on: NF-κB pathway (SEAP) in THP1-Dual cells; experiment: THP-1 Dual cell SEAP assay (L18-MDP stimulated); format: cell-based; conditions: read-out: NFkB THP1 IC50
[2] = target: GST-RIPK2 fusion protein (human RIPK2 amino acids 1-310) (Homo sapiens (Human), UniProt O43353); experiment: RIPK2 binding competition assay (TR-FRET, Tracer 199)
[3] = read-out: RIPK2 IC50, RIPK2 binding competition assay

Sequence of GST-RIPK2 fusion protein (human RIPK2 amino acids 1-310) (O43353 1-310): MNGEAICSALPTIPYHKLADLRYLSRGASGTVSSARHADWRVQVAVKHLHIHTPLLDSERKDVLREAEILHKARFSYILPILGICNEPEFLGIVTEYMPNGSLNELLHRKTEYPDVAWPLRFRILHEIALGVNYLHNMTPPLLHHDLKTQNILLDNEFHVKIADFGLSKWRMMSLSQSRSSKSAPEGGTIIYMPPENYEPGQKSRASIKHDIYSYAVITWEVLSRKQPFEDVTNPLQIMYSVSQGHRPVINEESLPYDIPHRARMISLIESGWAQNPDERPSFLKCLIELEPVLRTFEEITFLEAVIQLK

**Q.** What does the source list for `CC(C)(C)S(=O)(=O)c1ccn2ncc(-c3cc(N)nc(F)c3)c2c1` [Example 298, 4-(5-(tert-Butylsulfonyl)pyrazolo[1,5-a]pyridin-3-yl)-6-fluoropyridin-2-amine]?
**A.** IC50 ([1]; Homo sapiens, THP1-Dual): 0.05 to 0.25 µM; IC50 [2]: 0.0025 to 0.02 µM

**Q.** `COc1cc2ncc(-c3cccc(N)c3F)n2cc1S(=O)(=O)C(C)(C)C` [Example 29, 3-(6-(tert-butylsulfonyl)-7-methoxyimidazo[1,2-a]pyridin-3-yl)-2-fluoroaniline] was tested. Which IC50 ([1]; Homo sapiens, THP1-Dual) did it give?
**A.** The IC50 was > 1 µM.

**Q.** And the IC50 [2]?
**A.** Its IC50 is 0.0025 to 0.02 µM.

**Q.** How did the IC50 ([1]; Homo sapiens, THP1-Dual) turn out when `COc1cc2ncc(-c3cc(F)c(OC)c(C(C)(C)O)c3)n2cc1S(=O)(=O)C(C)(C)C` [Example 337, 2-(5-(6-(tert-butylsulfonyl)-7-methoxyimidazo[1,2-a]pyridin-3-yl)-3-fluoro-2-methoxyphenyl)propan-2-ol] was run?
**A.** Its IC50 is 0.25 to 1 µM.

**Q.** And the IC50 [2]?
**A.** Its IC50 is 0.001 to 0.0025 µM.

**Q.** For `CCCS(=O)(=O)Nc1cc(OC(F)(F)F)cc(-c2cnc3cc(OC)c(S(=O)(=O)C(C)(C)C)cn23)c1` [Example 135, N-{3-[7-methoxy-6-(2-methylpropane-2-sulfonyl)imidazo[1,2-a]pyridin-3-yl]-5-(trifluoromethoxy)phenyl}propane-1-sulfonamide], which IC50 ([1]; Homo sapiens, THP1-Dual) is on record?
**A.** Its IC50 is > 1 µM.

**Q.** What about the IC50 [2] of the same molecule?
**A.** Its IC50 is 0.0025 to 0.02 µM.

**Q.** How did the IC50 ([1]; Homo sapiens, THP1-Dual) turn out when `COc1cc2ncc(-c3cc(F)c(N)nc3O)n2cc1S(=O)(=O)C(C)(C)C` [Example 167, 6-amino-3-(6-(tert-butylsulfonyl)-7-methoxyimidazo[1,2-a]pyridin-3-yl)-5-fluoropyridin-2-ol] was run?
**A.** Its IC50 is > 1 µM.

**Q.** And the IC50 [2, 3]?
**A.** Its IC50 is > 0.02 µM.

**Q.** What does the source list for `COc1cc2ncc(-c3cnc(N)c(Cl)c3)n2cc1S(=O)(=O)C(C)(C)C` [Example 22, 5-(6-(tert-butylsulfonyl)-7-methoxyimidazo[1,2-a]pyridin-3-yl)-3-chloropyridin-2-amine]?
**A.** IC50 ([1]; Homo sapiens, THP1-Dual): > 1 µM; IC50 [2]: 0.0025 to 0.02 µM

**Q.** Which results are given for `COc1cc2ncc(-c3ccc(N)c(F)c3)n2cc1S(=O)(=O)C(C)(C)C` [Example 20, 4-(6-(tert-butylsulfonyl)-7-methoxyimidazo[1,2-a]pyridin-3-yl)-2-fluoroaniline]?
**A.** IC50 ([1]; Homo sapiens, THP1-Dual): 0.25 to 1 µM; IC50 [2]: 0.0025 to 0.02 µM

**Q.** What does the source list for `COc1cc2ncc(-c3ccc(N)c(Cl)c3F)n2cc1S(=O)(=O)C(C)(C)C` [Example 86, 4-(6-(tert-butylsulfonyl)-7-methoxyimidazo[1,2-a]pyridin-3-yl)-2-chloro-3-fluoroaniline]?
**A.** IC50 ([1]; Homo sapiens, THP1-Dual): > 1 µM; IC50 [2]: 0.0025 to 0.02 µM

**Q.** How did the IC50 ([1]; Homo sapiens, THP1-Dual) turn out when `CC(C)(C)S(=O)(=O)c1ccc2ncc(-c3cc(F)nc(NCCC4(O)CCC4)c3)n2c1` [Example 171, 1-(2-((4-(6-(tert-butylsulfonyl)imidazo [1,2-a]pyridin-3-yl)-6-fluoropyridin-2-yl)amino)ethyl)cyclo-butan-1-ol] was run?
**A.** The IC50 was < 0.05 µM.

**Q.** What about the IC50 [2] of the same molecule?
**A.** The IC50 was 0.001 to 0.0025 µM.

**Q.** Which IC50 ([1]; Homo sapiens, THP1-Dual) does the source give for `COc1cc2ncc(-c3cc(F)nc(OCCCO)c3)n2cc1S(=O)(=O)C(C)(C)C` [Example 129, 3-({6-fluoro-4-[7-methoxy-6-(2-methylpropane-2-sulfonyl)imidazo[1,2-a]pyridin-3-yl]pyridin-2-yl}oxy)propan-1-ol] here?
**A.** Its IC50 is > 1 µM.

**Q.** What about the IC50 [2, 3] of the same molecule?
**A.** The IC50 was > 0.02 µM.

**Q.** For `COc1cc2ncc(-c3cc(OC)c(N)nc3F)n2cc1S(=O)(=O)C(C)(C)C` [Example 74, 5-(6-(tert-butylsulfonyl)-7-methoxyimidazo[1,2-a]pyridin-3-yl)-6-fluoro-3-methoxypyridin-2-amine], which IC50 ([1]; Homo sapiens, THP1-Dual) is on record?
**A.** Its IC50 is > 1 µM.

**Q.** What about the IC50 [2] of the same molecule?
**A.** The IC50 was 0.0025 to 0.02 µM.

**Q.** Which results are given for `COc1cc2ncc(-c3cc(F)nc(NCc4ccc(=O)[nH]c4)c3)n2cc1S(=O)(=O)C(C)(C)C` [Example 184, 5-(((4-(6-(tert-butylsulfonyl)-7-methoxyimidazo[1,2-a]pyridin-3-yl)-6-fluoropyridin-2-yl)amino)methyl) pyridin-2(1H)-one]?
**A.** IC50 ([1]; Homo sapiens, THP1-Dual): 0.05 to 0.25 µM; IC50 [2, 3]: < 0.001 µM

**Q.** How did the IC50 ([1]; Homo sapiens, THP1-Dual) turn out when `COc1cc2ncc(-c3ccc(OC)c(N)n3)n2cc1S(=O)(=O)C(C)(C)C` [Example 336, 6-(6-(tert-butylsulfonyl)-7-methoxyimidazo[1,2-a]pyridin-3-yl)-3-methoxypyridin-2-amine] was run?
**A.** Its IC50 is > 1 µM.

**Q.** And the IC50 [2, 3]?
**A.** Its IC50 is > 0.02 µM.

**Q.** `COc1cc2ncc(-c3cc(F)nc(N[C@H]4CC[C@@H](O)CC4)c3)n2cc1S(=O)(=O)C(C)(C)C` [Example 206, (1s,4s)-4-((4-(6-(tert-butylsulfonyl)-7-methoxyimidazo[1,2-a]pyridin-3-yl)-6-fluoropyridin-2-yl)amino)cyclohexan-1-ol] was tested. Which IC50 [1] did it give?
**A.** Its IC50 is < 0.05 µM.

**Q.** What about the IC50 [2] of the same molecule?
**A.** The IC50 was 0.001 to 0.0025 µM.

**Q.** What does the source list for `CCCS(=O)(=O)Nc1cc(-c2cnc3cc(OC)c(S(=O)(=O)C(C)(C)C)cn23)cc(F)c1OC(F)F` [Example 284, N-(5-(6-(tert-butylsulfonyl)-7-methoxyimidazo[1,2-a]pyridin-3-yl)-2-(difluoromethoxy)-3-fluorophenyl)propane-1-sulfonamide]?
**A.** IC50 ([1]; Homo sapiens, THP1-Dual): 0.05 to 0.25 µM; IC50 [2]: 0.001 to 0.0025 µM

**Q.** Which IC50 ([1]; Homo sapiens, THP1-Dual) does the source give for `CCCS(=O)(=O)Nc1cc(F)cc(-c2cnc3cc(OC)c(S(=O)(=O)C(C)(C)C)cn23)c1F` [Example 292, N-(3-(6-(tert-butylsulfonyl)-7-methoxyimidazo[1,2-a]pyridin-3-yl)-2,5-difluorophenyl)propane-1-sulfonamide] here?
**A.** The IC50 was > 1 µM.

**Q.** And the IC50 [2]?
**A.** Its IC50 is 0.0025 to 0.02 µM.

**Q.** What does the source list for `COc1cc2ncc(-c3cc(F)nc(NCCC4(O)COC4)c3)n2cc1S(=O)(=O)C(C)(C)C` [Example 213, 3-(2-((4-(6-(tert-butylsulfonyl)-7-methoxyimidazo[1,2-a]pyridin-3-yl)-6-fluoropyridin-2-yl)amino)ethyl)oxetan-3-ol]?
**A.** IC50 ([1]; Homo sapiens, THP1-Dual): 0.25 to 1 µM; IC50 [2]: 0.0025 to 0.02 µM

**Q.** Which IC50 ([1]; Homo sapiens, THP1-Dual) does the source give for `CNc1ccc(-c2cnc3cc(OC)c(S(=O)(=O)C(C)(C)C)cn23)cn1` [Example 69, 5-(6-(tert-butylsulfonyl)-7-methoxyimidazo[1,2-a]pyridin-3-yl)-N-methylpyridin-2-amine] here?
**A.** The IC50 was > 1 µM.

**Q.** What about the IC50 [2, 3] of the same molecule?
**A.** Its IC50 is > 0.02 µM.

**Q.** For `COc1cc(-c2cnc3cc(OC)c(S(=O)(=O)C(C)(C)C)cn23)c(F)cc1N` [Example 90, 4-(6-(tert-butylsulfonyl)-7-methoxyimidazo[1,2-a]pyridin-3-yl)-5-fluoro-2-methoxyaniline], which IC50 ([1]; Homo sapiens, THP1-Dual) is on record?
**A.** Its IC50 is 0.25 to 1 µM.

**Q.** What about the IC50 [2] of the same molecule?
**A.** Its IC50 is 0.0025 to 0.02 µM.

**Q.** Which results are given for `COc1cc2ncc(-c3ccc(OC)c(NCCCO)n3)n2cc1S(=O)(=O)C(C)(C)C` [Example 312, 3-((6-(6-(tert-butylsulfonyl)-7-methoxyimidazo[1,2-a]pyridin-3-yl)-3-methoxypyridin-2-yl)amino)propan-1-ol]?
**A.** IC50 ([1]; Homo sapiens, THP1-Dual): 0.25 to 1 µM; IC50 [2]: 0.0025 to 0.02 µM

**Q.** Which results are given for `COc1cc2ncc(-c3ccc(N)c(C#N)c3F)n2cc1S(=O)(=O)C(C)(C)C` [Example 91, 6-amino-3-(6-(tert-butylsulfonyl)-7-methoxyimidazo[1,2-a]pyridin-3-yl)-2-fluorobenzonitrile]?
**A.** IC50 ([1]; Homo sapiens, THP1-Dual): > 1 µM; IC50 [2]: 0.0025 to 0.02 µM

**Q.** Which IC50 ([1]; Homo sapiens, THP1-Dual) does the source give for `CCOc1cc2ncc(-c3cc(Cl)c(N)nc3F)n2cc1S(=O)(=O)C(C)C` [Example 118, 3-chloro-5-[6-ethoxy-5-(isopropylsulfonyl)-1,3a-diaza-3-indenyl]-6-fluoro-2-pyridylamine] here?
**A.** The IC50 was 0.25 to 1 µM.

**Q.** What about the IC50 [2] of the same molecule?
**A.** Its IC50 is 0.0025 to 0.02 µM.

**Q.** What does the source list for `COc1cc2ncc(-c3ccc(N(C)C)nc3F)n2cc1S(=O)(=O)C(C)(C)C` [Example 77, 5-(6-(tert-butylsulfonyl)-7-methoxyimidazo[1,2-a]pyridin-3-yl)-6-fluoro-N,N-dimethylpyridin-2-amine]?
**A.** IC50 ([1]; Homo sapiens, THP1-Dual): > 1 µM; IC50 [2, 3]: > 0.02 µM

**Q.** What does the source list for `COc1cc2ncc(-c3cc(F)nc(N[C@@H](C)CO)c3)n2cc1S(=O)(=O)C(C)(C)C` [Example 222, (2S)-2-({6-fluoro-4-[7-methoxy-6-(2-methylpropane-2-sulfonyl)imidazo[1,2-a]pyridin-3-yl]pyridin-2-yl}amino)propan-1-ol]?
**A.** IC50 ([1]; Homo sapiens, THP1-Dual): < 0.05 µM; IC50 [2]: 0.001 to 0.0025 µM

Reference: patent US20250346593A1, “IMIDAZO(1,2-1)PYRIDINE DERIVATIVES AS RIPK2 INHIBITORS” (Interline Therapeutics, Inc., priority 2022, published 2025)
